We go through 11 substances from publication PMC1978516, “The PDZ Domain as a Complex Adaptive System” (PLoS ONE, 2007).

Ends that are not written are not given here.

The subject of one assay is PSD95-PDZ2. In words: peptide ELISA on immobilized GST-PDZ fusion. In kind it is binding. The note with it: Fig. 3. The source says: (§1) Figure 3 Binding of 126 proteomic fragments (natural ligands) to six PDZ domains of PSD95 and SAP97. Binding histograms were obtained by peptide ELISA performed on purified GST fusions of the indicated domains immobilized in micro-titer plate wells as described previously. The X axis indicates the i.d. numbers of natural ligands (see Table S2). The Y axis indicates the peptide ELISA kinetics slope value in arbitrary units (a.u.). The 127th and 128th wells in each of the six sets were loaded with irrelevant peptides to indicate background signal. To illustrate internal consistency of the affinity evaluations obtained by peptide ELISA and their external consistency with the previously published affinity measurements, the reported affinities of the five PDZ domain-ligand pairs obtained by three different research groups using fluorescence polarization, [18], [32] are shown.
(§2) Wells of microtiter plates were coated with 1 µg of the indicated GST-PDZ domain fusions, washed with TBS-T and blocked with 1% BSA in the same way as described above for phage ELISA. Individual biotinylated peptides (30 ng) were pre-incubated with 1 µg of streptavidin-HRP conjugate (Pierce) in 300 µl of TBS-T for 30 min at RT. One hundred µl of the peptide-streptavidin-HRP conjugate were added to 100 µl of TBS-T left in each coated well after the final wash of the protein immobilization/blocking procedure. Microtiter plates were incubated for 1 hour at RT, and then washed 5 (x1mL) times with TBS-T. The amounts of peptides retained were quantified colorimetrically by adding soluble HRP substrate (ABTS/H2O2) and measuring ELISA kinetic slopes. ELISA readings were taken on a SpectraMAX190 plate reader (Molecular Devices) at 405 nm. To ensure reproducibility, all peptide ELISA experiments presented were repeated at least three times in at least three separate experiments performed by two different experimenters.

In assay [1] the test system is PSD95-PDZ3. In words: peptide ELISA on immobilized GST-PDZ fusion. Particulars: Fig. 3. The class given is binding.
Source text: as §1, §2
(In an ELISA, binding on a coated surface is turned into a signal by an enzyme label.)

In another assay the test system is SAP97-PDZ2. In words: peptide ELISA on immobilized GST-PDZ fusion. In kind it is binding. The note with it: Fig. 3.
Source text: as §1, §2

For a further assay, the system named is first PSD95 PDZ domain. Particulars: cited from earlier work. The source says:
(§3) In order to gain insight into the pattern recognition differences of the PDZ domains that belong to the same class but are able to differentiate between peptide ligands sharing the class-defining C-terminal consensus, we investigated a particular case of this general puzzle, namely, the differences in recognition preferences between the second and third PDZ domains of PSD95, which are classified as type I PDZ domains but are known to discriminate between various X-(S/T)-X-(V/I/L)-COOH ligands, [18]. In Fig. 5A we compare two sets of C-terminal sequences. The first set represents the s ...

For the next assay, the system named is second PSD95 PDZ domain. The note with it: cited from earlier work.
Source text: as §3

A further assay deals with third PSD95 PDZ domain. The note with it: cited from earlier work.
Source text: as §3

The test system of assay [2] is PSD95-PDZ3. In words: phage ELISA on immobilized GST-PDZ fusion. The class given is binding. The note with it: Fig. 1 and not shown. On the procedure:
Binding histograms were obtained by individual phage ELISA performed on purified GST fusions of the indicated domains immobilized in micro-titer plate wells [40]. For accurate relative affinity evaluations and cross-domain comparison, the slopes of individual ELISA kinetics were determined and normalized by the highest slope value in each of the six sets shown. The 96th well in each set was loaded with a library aliquot to indicate background. Axis X indicates identification (i.d.) numbers of individual artificial ligands (see individual ligand sequences together with their i.d. numbers in Table S1). Axis Y indicates the normalized relative affinity. The domain organization of the PSD95 and SAP97 proteins is shown above histograms.
GST fusion-coated microtiter ELISA plates (COSTAR) were prepared by passive immobilization of 1 µg of the indicated GST fusion proteins (Fig. 1) per well in 200 µl of 0.1M NaHCO3, pH 8.0, overnight at 4°C. Following protein coating, plates were blocked by adding 150 µl of 1% BSA in TBS for 1 hour at RT. Following incubation, the wells with immobilized target proteins were washed 5 (x1ml) times with TBS-T. One hundred µl of freshly prepared individual phage lysate was added to the ELISA plate wells and incubated for 1 hour at RT. Following incubation, unbound phages were washed away with TBS-T and the amount of retained phages was determined with polyclonal T7 phage-specific antibodies followed by monoclonal anti-rabbit antibodies conjugated to horseradish peroxidase (HRP) (Amersham Pharmacia). The individual phage ELISA kinetics were followed and quantified colorimetrically using soluble HRP substrate (ABTS/H2O2). ELISA readings were taken on a SpectraMAX190 plate reader (Molecular Devices) at 405 nm. To ensure reproducibility, each of the individual phage ELISA binding histograms presented was obtained at least three times in at least three separate experiments performed by two different experimenters.

For “ALPDGNIAESLESLV> [compound 018, N-terminally biotinylated 15-mer proteomic fragment, SWISS-PROT P23471, receptor-type tyrosine protein phosphatase zeta]”, the “binding to the second PDZ domain of PSD95” value in the assay on PSD95-PDZ2 is recorded as “bind to the second PDZ domains”. The “binding to the third PDZ domain of PSD95” value in the assay on PSD95-PDZ3 [1] is reported as “not to their third PDZ domains”. Besides, in the assay with SAP97-PDZ2, the “binding to the second PDZ domain of SAP97” value is given as “bind to the second PDZ domains”.

With EKLSSIESDV-OH [NR2B], the “interaction with the first PSD95 PDZ domain” value in the assay on first PSD95 PDZ domain is reported as “bind”. The “interaction with the second PSD95 PDZ domain” value in the assay with second PSD95 PDZ domain is on record as “bind”. Further, the “interaction with the third PSD95 PDZ domain” value with third PSD95 PDZ domain was “fail to interact”.

With “IADESDPAESMESLV> [compound 017, N-terminally biotinylated 15-mer proteomic fragment, SWISS-PROT P23470, receptor-type tyrosine protein phosphatase gamma]”, in the assay with PSD95-PDZ2, the “binding to the second PDZ domain of PSD95” value was “bind to the second PDZ domains”. Further, in the assay with PSD95-PDZ3 [1], the “binding to the third PDZ domain of PSD95” value is listed as “not to their third PDZ domains”. In the assay with SAP97-PDZ2, the “binding to the second PDZ domain of SAP97” value is reported as “bind to the second PDZ domains”.

Take KKMPSIESDV-OH [NR2A]: the “interaction with the first PSD95 PDZ domain” value in the assay on first PSD95 PDZ domain is listed as “bind”. Besides, in the assay on second PSD95 PDZ domain, the “interaction with the second PSD95 PDZ domain” value was “bind”. Besides, the “interaction with the third PSD95 PDZ domain” value with third PSD95 PDZ domain is reported as “fail to interact”.

For the substance TRGTKRSWYHSF> [compound 17], in the assay with PSD95-PDZ3 [2], the “interaction with PSD95-PDZ3 in vitro” value is “interacts selectively and with reasonable affinity”.

For the substance TRGTKRSWYYSF> [compound 20], the “interaction with PSD95-PDZ3 in vitro” value in the assay with PSD95-PDZ3 [2] was “interacts selectively and with reasonable affinity”.

Turning to TSGTKRSWYHSF> [compound 18], the “interaction with PSD95-PDZ3 in vitro” value in the assay with PSD95-PDZ3 [2] is “interacts selectively and with reasonable affinity”.

As to TTGKKRRWYHSF> [compound 19], in the assay on PSD95-PDZ3 [2], the “interaction with PSD95-PDZ3 in vitro” value is “interacts selectively and with reasonable affinity”.

As to VNIKKIFTDV-OH [Kv1.3], the “interaction with the first PSD95 PDZ domain” value in the assay with first PSD95 PDZ domain is listed as “bind”. Also, in the assay on second PSD95 PDZ domain, the “interaction with the second PSD95 PDZ domain” value is reported as “bind”. The “interaction with the third PSD95 PDZ domain” value in the assay with third PSD95 PDZ domain is recorded as “fail to interact”.

For VNITKMLTDV-OH [Kv1.2], the “interaction with the first PSD95 PDZ domain” value in the assay on first PSD95 PDZ domain is given as “bind”. Besides, the “interaction with the second PSD95 PDZ domain” value in the assay with second PSD95 PDZ domain is listed as “bind”. In the assay on third PSD95 PDZ domain, the “interaction with the third PSD95 PDZ domain” value was “fail to interact”.

For the substance VNKSKLLTDV-OH [Kv1.1], the “interaction with the first PSD95 PDZ domain” value with first PSD95 PDZ domain was “bind”. For the same substance, the “interaction with the second PSD95 PDZ domain” value in the assay on second PSD95 PDZ domain is recorded as “bind”. In addition, the “interaction with the third PSD95 PDZ domain” value in the assay with third PSD95 PDZ domain is given as “fail to interact”.
